Patent US20030004175A1, “1,3-oxathiolane nucleoside analogues” (BioChem Pharma Inc., priority 1990, published 2003)
≈ marks a conversion by molar mass, not a printed value.

Legend:
[1] = tested on: H9 cells; experiment: Cytotoxicity, viable cell count by trypan blue exclusion, H9 cells; format: cell-based; settings: 5 days at 37° C.
Description: (§1) The cytotoxicites of the compounds of Example 2, the racemic compound (BCH-189; […] H9, JM, CEM, C8166 and U937. […] After incubation at 37° C. for 5 days, the viable cell count was determined by removing a sample of cell suspension and counting trypan blue excluding cells in a haemocytometer.

[2] = tested on: U937 cells; experiment: Cytotoxicity, viable cell count by trypan blue exclusion, U937 cells; format: cell-based; settings: 5 days at 37° C.
Description: as §1

[3] = tested on: C8166 cells; experiment: Cytotoxicity, viable cell count by trypan blue exclusion, C8166 cells; format: cell-based, human; settings: 5 days at 37° C.
Description: as §1

[4] = tested on: JM cells; experiment: Cytotoxicity, viable cell count by trypan blue exclusion, JM cells; format: cell-based; settings: 5 days at 37° C.
Description: as §1

[5] = tested on: CEM cells; experiment: Cytotoxicity, viable cell count by trypan blue exclusion, CEM cells; format: cell-based, human; settings: 5 days at 37° C.
Description: as §1

[6] = tested on: HIV-1 strain RF; experiment: Inhibition of HIV p24 antigen synthesis, C8166 cells, strain RF; format: cell-based; settings: Human immunodeficiency virus 1, read-out: 50% Inhibition HIV p24 Synthesis
Description: (§2) Antiviral activity of the compounds of Example 2 were determined against three strains of HIV-1 and one strain of HIV-2 in the following cell lines.
(§3) C8166 cells, a human T-lymphoblastoid cell line, infected with HIV-1 strain RF.
(§4) Antiviral activities in C8166, JM, and CEM cells were determined by inhibition of syncytium formation (Tochikura et al Virology, 164, 542-546) and in MT-4 cells by inhibition of formazan conversion (Baba et al; (1987) Biochem Biophys Res Commun., 142, 128-134; Mossman (1983) J. Immun Meth; 65, 55-57). Antiviral activities were also determined by analysing the amount of HIV p24 antigen synthesised in the presence and absence of enantiomers.

[7] = tested on: HIV-1 strain RF; experiment: Antiviral activity by inhibition of syncytium formation, CEM cells infected with HIV-1 RF; format: cell-based; settings: Human immunodeficiency virus 1, CCRF-CEM, read-out: 50% Antiviral Activity
Description: as §2
(§5) CEM cells, a human T-lymphoblastoid cell line, infected with HIV-1 strains RF and U455, or HIV-2 strain ROD.
as §4

[8] = tested on: HIV-1 strain GB8; experiment: Antiviral activity by inhibition of syncytium formation, JM cells infected with HIV-1 GB8; format: cell-based; settings: Human immunodeficiency virus 1, read-out: 50% Antiviral Activity
Description: as §2
(§6) JM cells, a semi-mature T-cell line derived from a patient with lymphoblastic leukaemia, infected with HIV-1 strain GB8.
as §4

[9] = tested on: HIV-1 strain RF; experiment: Inhibition of HIV p24 antigen synthesis, MT-4 cells, strain RF; format: cell-based; settings: Human immunodeficiency virus 1, MT4, read-out: 50% Inhibition HIV p24 Synthesis
Description: as §2
(§7) MT-4 cells, a human T-cell leukaemia cell line, infected with HIV-1 strain RF.
as §4

[10] = tested on: HIV-2 strain ROD; experiment: Antiviral activity by inhibition of syncytium formation, CEM cells infected with HIV-2 ROD; format: cell-based; settings: Human immunodeficiency virus 2, CCRF-CEM, read-out: 50% Antiviral Activity
Description: as §2, §5, §4

[11] = tested on: HIV-1 strain U455; experiment: Antiviral activity by inhibition of syncytium formation, CEM cells infected with HIV-1 U455; format: cell-based; settings: Human immunodeficiency virus 1, CCRF-CEM, read-out: 50% Antiviral Activity
Description: as §2, §5, §4

[12] = tested on: HIV-1 strain GB8; experiment: Inhibition of HIV p24 antigen synthesis, JM cells, strain GB8; format: cell-based; settings: Human immunodeficiency virus 1, read-out: 50% Inhibition HIV p24 Synthesis
Description: as §2, §6, §4

[13] = tested on: HIV-1 strain RF; experiment: Antiviral activity by inhibition of formazan conversion, MT-4 cells infected with HIV-1 RF; format: cell-based; settings: Human immunodeficiency virus 1, MT4, Formazan assay, read-out: 50% Antiviral Activity
Description: as §2, §7, §4

[14] = tested on: HIV-1 strain RF; experiment: Antiviral activity by inhibition of syncytium formation, C8166 cells infected with HIV-1 RF; format: cell-based; settings: Human immunodeficiency virus 1, read-out: 50% Antiviral Activity
Description: as §2, §3, §4

[15] = tested on: CD4 cell lines; experiment: Cytotoxicity (summary statement); format: cell-based
Description: Compounds for test were serially diluted from 100 μg/ml to 0.3 μg/ml (final concentrations) in 96 well microtitre plates. 3.6×10^4 cells were inoculated into each well of the plates including drug-free controls. After incubation at 37° C. for 5 days, the viable cell count was determined by removing a sample of cell suspension and counting trypan blue excluding cells in a haemocytometer.

| Structure (SMILES) | 50% Cytoxicity [1] | 50% Cytoxicity [2] | 50% Cytoxicity [3] | 50% Cytoxicity [4] | 50% Cytoxicity [5] | IC50 [6] | IC50 [7] | IC50 [8] | IC50 [9] | IC50 [10] | IC50 [11] | IC50 [12] | IC50 [13] | IC50 [14] | cytotoxicity compared with the other enantiomer [15] |
| --- | --- | --- | --- | --- | --- | --- | --- | --- | --- | --- | --- | --- | --- | --- | --- |
| Nc1ccn([C@@H]2CS[C@H](CO)O2)c(=O)n1 (racemic) [BCH-189, (±)-(cis)-4-Amino-1-(2-hydroxymethyl-1,3-oxathiolan-5-yl)-(1H)-pyrimidin-2-one] | 8 µg/mL | 15 µg/mL | 90 µg/mL | 3.5 µg/mL | 3 µg/mL |  |  |  |  |  |  |  |  |  |  |
| Nc1ccn([C@H]2CS[C@@H](CO)O2)c(=O)n1 [(+)-enantiomer, (2S,cis)-4-amino-1-(2-hydroxymethyl-1,3-oxathiolan-5-yl)-(1H)-pyrimidin-2-one] | 2 µg/mL | 4 µg/mL | 35 µg/mL | 1.5 µg/mL | 1 µg/mL | 0.021 µg/mL (≈ 0.0916 µM) | 0.07 µg/mL (≈ 0.305 µM) | 0.03 µg/mL (≈ 0.131 µM) | 0.0008 µg/mL (≈ 0.00349 µM) | 0.045 µg/mL (≈ 0.196 µM) | 0.006 µg/mL (≈ 0.0262 µM) | 0.033 µg/mL (≈ 0.144 µM) | 0.28 µg/mL (≈ 1.22 µM) | 0.05 µg/mL (≈ 0.218 µM) |  |
| Nc1ccn([C@@H]2CS[C@H](CO)O2)c(=O)n1 [(−)-enantiomer, (−)-cis-4-Amino-1-(2-hydroxymethyl-1,3-oxathiolan-5-yl)-(1H)-pyrimidin-2-one] | >100 µg/mL | >100 µg/mL | >100 µg/mL | 30 µg/mL | >100 µg/mL | 0.016 µg/mL (≈ 0.0698 µM) | 0.04 µg/mL (≈ 0.174 µM) | 0.05 µg/mL (≈ 0.218 µM) | 0.0004 µg/mL (≈ 0.00174 µM) | 0.055 µg/mL (≈ 0.24 µM) | 0.008 µg/mL (≈ 0.0349 µM) | 0.016 µg/mL (≈ 0.0698 µM) | 0.2 µg/mL (≈ 0.872 µM) | 0.01 µg/mL (≈ 0.0436 µM) | considerably lower cytotoxicity |
